ChEMBL document CHEMBL5365394, “Design, synthesis and biological evaluation of novel spiro-quinazolinone derivatives as chitin synthase inhibitors and antifungal agents” (Eur J Med Chem, 2023)
Converted amounts (≈) assume the structure as drawn.

What was measured:
Aspergillus fumigatus [1] = assay: Synergistic antifungal activity against Aspergillus fumigatus GIMCC 3.19 assessed as fractional inhibitory concentration index incubated for 24 hrs in presence of fluconazole by checkerboard broth microdilution method; assay type: functional
Aspergillus flavus [2] = assay: Additive antifungal activity against Aspergillus flavus ATCC 16870 assessed as fractional inhibitory concentration index incubated for 24 hrs in presence of polyoxin B by checkerboard broth microdilution method; assay type: functional
Aspergillus fumigatus [3] = assay: Antifungal activity against Aspergillus fumigatus GIMCC 3.19 assessed as fungal growth inhibition incubated for 24 hrs by two-fold serial dilution method; assay type: functional
Candida albicans [4] = assay: Antifungal activity against Micafungin-resistant Candida albicans ATCC 76615R assessed as fungal growth inhibition; assay type: functional
Aspergillus fumigatus [5] = assay: Antifungal activity against Aspergillus fumigatus GIMCC 3.19 assessed as inhibition of cell wall synthesis incubated for 24 hrs in absence of sorbitol; assay type: functional
[6] = Inhibition of Candida tropicalis ATCC 750 chitin synthase using UDP-GlcNAc as substrate incubated for 1 hr by absorbance based assay
Candida albicans [7] = assay: Antifungal activity against Fluconazole-resistant Candida albicans ATCC 76615R assessed as fungal growth inhibition; assay type: functional
Cryptococcus neoformans [8] = assay: Antifungal activity against Cryptococcus neoformans ATCC 32719 assessed as fungal growth inhibition incubated for 24 hrs by two-fold serial dilution method; assay type: functional
Aspergillus flavus [9] = assay: Antifungal activity against Aspergillus flavus ATCC 16870 assessed as fungal growth inhibition incubated for 24 hrs by two-fold serial dilution method; assay type: functional
Aspergillus fumigatus [10] = assay: Synergistic antifungal activity against Aspergillus fumigatus GIMCC 3.19 assessed as fluconazole MIC incubated for 24 hrs in by checkerboard broth microdilution method; assay type: functional
Aspergillus fumigatus [11] = assay: Synergistic antifungal activity against Aspergillus fumigatus GIMCC 3.19 assessed as polyoxin B MIC incubated for 24 hrs by checkerboard broth microdilution method; assay type: functional
Candida albicans [12] = assay: Antifungal activity against Candida albicans ATCC 76615 assessed as inhibition of cell wall synthesis incubated for 24 hrs in absence of sorbitol; assay type: functional
Aspergillus flavus [13] = assay: Additive antifungal activity against Aspergillus flavus ATCC 16870 assessed as fractional inhibitory concentration index incubated for 24 hrs in presence of fluconazole by checkerboard broth microdilution method; assay type: functional
Cryptococcus neoformans [14] = assay: Antifungal activity against Cryptococcus neoformans ATCC 32719 assessed as inhibition of cell wall synthesis incubated for 24 hrs in presence of sorbitol; assay type: functional
Cryptococcus neoformans [15] = assay: Synergistic antifungal activity against Cryptococcus neoformans ATCC 32719 assessed as fluconazole MIC incubated for 24 hrs in by checkerboard broth microdilution method; assay type: functional
Candida albicans [16] = assay: Synergistic antifungal activity against Candida albicans ATCC 76615 assessed as fluconazole MIC incubated for 24 hrs in by checkerboard broth microdilution method; assay type: functional
Aspergillus flavus [17] = assay: Antifungal activity against Aspergillus flavus ATCC 16870 assessed as inhibition of cell wall synthesis incubated for 24 hrs in presence of sorbitol; assay type: functional
Aspergillus flavus [18] = assay: Antifungal activity against Aspergillus flavus ATCC 16870 assessed as inhibition of cell wall synthesis incubated for 24 hrs in absence of sorbitol; assay type: functional
Candida albicans [19] = assay: Antifungal activity against Candida albicans ATCC 76615 assessed as inhibition of cell wall synthesis incubated for 24 hrs in presence of sorbitol; assay type: functional
Aspergillus flavus [20] = assay: Antifungal activity against Fluconazole-resistant Aspergillus flavus ATCC 16870R assessed as fungal growth inhibition; assay type: functional
Cryptococcus neoformans [21] = assay: Antifungal activity against Cryptococcus neoformans ATCC 32719 assessed as inhibition of cell wall synthesis incubated for 24 hrs in absence of sorbitol; assay type: functional
Cryptococcus neoformans [22] = assay: Additive antifungal activity against Cryptococcus neoformans ATCC 32719 assessed as fractional inhibitory concentration index incubated for 24 hrs in presence of polyoxin B by checkerboard broth microdilution method; assay type: functional
Candida albicans [23] = assay: Additive antifungal activity against Candida albicans ATCC 76615 assessed as fractional inhibitory concentration index incubated for 24 hrs in presence of fluconazole by checkerboard broth microdilution method; assay type: functional
Candida albicans [24] = assay: Antifungal activity against Candida albicans ATCC 76615 assessed as fungal growth inhibition incubated for 24 hrs by two-fold serial dilution method; assay type: functional
Cryptococcus neoformans [25] = assay: Antifungal activity against Fluconazole-resistant Cryptococcus neoformans ATCC 32719R assessed as fungal growth inhibition; assay type: functional
Aspergillus fumigatus [26] = assay: Antifungal activity against Aspergillus fumigatus GIMCC 3.19 assessed as inhibition of cell wall synthesis incubated for 24 hrs in presence of sorbitol; assay type: functional
Candida albicans [27] = assay: Additive antifungal activity against Candida albicans ATCC 76615 assessed as fractional inhibitory concentration index incubated for 24 hrs in presence of polyoxin B by checkerboard broth microdilution method; assay type: functional
Cryptococcus neoformans [28] = assay: Additive antifungal activity against Cryptococcus neoformans ATCC 32719 assessed as fractional inhibitory concentration index incubated for 24 hrs in presence of fluconazole by checkerboard broth microdilution method; assay type: functional
Aspergillus flavus [29] = assay: Synergistic antifungal activity against Aspergillus flavus ATCC 16870 assessed as fluconazole MIC incubated for 24 hrs in by checkerboard broth microdilution method; assay type: functional
Aspergillus flavus [30] = assay: Synergistic antifungal activity against Aspergillus flavus ATCC 16870 assessed as polyoxin B MIC incubated for 24 hrs by checkerboard broth microdilution method; assay type: functional
Candida tropicalis = assay: Inhibition of Candida tropicalis ATCC 750 chitin synthase using […] as substrate at 300 ug/ml incubated for 1 hr by absorbance based assay relative to control; conditions: dose 300.0 µg/ml
Aspergillus fumigatus [31] = assay: Antifungal activity against Fluconazole-resistant Aspergillus fumigatus GIMCC 3.19R assessed as fungal growth inhibition; assay type: functional
Aspergillus fumigatus [32] = assay: Additive antifungal activity against Aspergillus fumigatus GIMCC 3.19 assessed as fractional inhibitory concentration index incubated for 24 hrs in presence of polyoxin B by checkerboard broth microdilution method; assay type: functional
Candida albicans [33] = assay: Synergistic antifungal activity against Candida albicans ATCC 76615 assessed as polyoxin B MIC incubated for 24 hrs by checkerboard broth microdilution method; assay type: functional
Cryptococcus neoformans [34] = assay: Synergistic antifungal activity against Cryptococcus neoformans ATCC 32719 assessed as polyoxin B MIC incubated for 24 hrs in by checkerboard broth microdilution method; assay type: functional
Cryptococcus neoformans [35] = assay: Synergistic antifungal activity against Cryptococcus neoformans ATCC 32719 assessed as fractional inhibitory concentration index incubated for 24 hrs in presence of polyoxin B by checkerboard broth microdilution method; assay type: functional
Aspergillus fumigatus [36] = assay: Synergistic antifungal activity against Aspergillus fumigatus GIMCC 3.19 assessed as fractional inhibitory concentration index incubated for 24 hrs in presence of polyoxin B by checkerboard broth microdilution method; assay type: functional
Cryptococcus neoformans [37] = assay: Synergistic antifungal activity against Cryptococcus neoformans ATCC 32719 assessed as fractional inhibitory concentration index incubated for 24 hrs in presence of fluconazole by checkerboard broth microdilution method; assay type: functional
Aspergillus fumigatus [38] = assay: Additive antifungal activity against Aspergillus fumigatus GIMCC 3.19 assessed as fractional inhibitory concentration index incubated for 24 hrs in presence of fluconazole by checkerboard broth microdilution method; assay type: functional

SMILES | fractional inhibitory concentration index (FICI) (Aspergillus flavus [2]) | MIC (Aspergillus fumigatus [3]) [µg/mL] | MIC (Candida albicans [4]) [µg/mL] | MIC (Aspergillus fumigatus [5]) [µg/mL] | IC50 [6] [µM] | MIC (Candida albicans [7]) [µg/mL] | MIC (Cryptococcus neoformans [8]) [µg/mL] | MIC (Aspergillus flavus [9]) [µg/mL] | MIC (Aspergillus fumigatus [10]) [µg/mL] | MIC (Aspergillus fumigatus [11]) [µg/mL] | MIC (Candida albicans [12]) [µg/mL] | fractional inhibitory concentration index (FICI) (Aspergillus flavus [13]) | MIC (Cryptococcus neoformans [14]) [µg/mL] | MIC (Cryptococcus neoformans [15]) [µg/mL] | MIC (Candida albicans [16]) [µg/mL] | MIC (Aspergillus flavus [17]) [µg/mL] | MIC (Aspergillus flavus [18]) [µg/mL] | MIC (Candida albicans [19]) [µg/mL] | MIC (Aspergillus flavus [20]) [µg/mL] | MIC (Cryptococcus neoformans [21]) [µg/mL] | also measured
O=C(/C=C/C(=O)Nc1ccc(Cl)cc1Cl)Nc1ccc2c(c1)C(=O)NC1(CCSC1)N2 (stereo not given) | 2 | 8 (≈ 16.8 µM) | 16 (≈ 33.5 µM) | 16 (≈ 33.5 µM) | 137 | 32 (≈ 67 µM) | 8 (≈ 16.8 µM) | 8 (≈ 16.8 µM) | 2 | 8 | 16 (≈ 33.5 µM) | 1.25 | 128 | 2 | 2 | 256 | 32 (≈ 67 µM) | 256 | 32 (≈ 67 µM) | 16 (≈ 33.5 µM) | fractional inhibitory concentration index (FICI) (Aspergillus fumigatus [1]): 0.75; fractional inhibitory concentration index (FICI) (Cryptococcus neoformans [22]): 1.5; fractional inhibitory concentration index (FICI) (Candida albicans [23]): 1.5; MIC (Candida albicans [24]): 8 µg/mL (≈ 16.8 µM); MIC (Cryptococcus neoformans [25]): 32 µg/mL (≈ 67 µM); MIC (Aspergillus fumigatus [26]): 128 µg/mL; fractional inhibitory concentration index (FICI) (Candida albicans [27]): 1.25; fractional inhibitory concentration index (FICI) (Cryptococcus neoformans [28]): 1.5; MIC (Aspergillus flavus [29]): 4 µg/mL; MIC (Aspergillus flavus [30]): 16 µg/mL; inhibition (Candida tropicalis): 73.9%; MIC (Aspergillus fumigatus [31]): 16 µg/mL (≈ 33.5 µM); fractional inhibitory concentration index (FICI) (Aspergillus fumigatus [32]): 1.5; MIC (Candida albicans [33]): 2 µg/mL; MIC (Cryptococcus neoformans [34]): 16 µg/mL
O=C(/C=C/C(=O)Nc1ccc2c(c1)C(=O)NC1(CCSC1)N2)Nc1ccc(Br)cc1 (stereo not given) | 1.125 | 8 (≈ 16.4 µM) | 16 (≈ 32.8 µM) | 16 (≈ 32.8 µM) | 117 | 32 (≈ 65.7 µM) | 2 (≈ 4.1 µM) | 16 (≈ 32.8 µM) | 1 | 8 | 16 (≈ 32.8 µM) | 1.5 | 128 | 2 | 1 | 256 | 32 (≈ 65.7 µM) | 128 | 32 (≈ 65.7 µM) | 8 (≈ 16.4 µM) | fractional inhibitory concentration index (FICI) (Cryptococcus neoformans [35]): 0.75; fractional inhibitory concentration index (FICI) (Aspergillus fumigatus [36]): 1; fractional inhibitory concentration index (FICI) (Candida albicans [23]): 1.5; fractional inhibitory concentration index (FICI) (Cryptococcus neoformans [37]): 0.75; MIC (Candida albicans [24]): 16 µg/mL (≈ 32.8 µM); MIC (Cryptococcus neoformans [25]): 8 µg/mL (≈ 16.4 µM); MIC (Aspergillus fumigatus [26]): 256 µg/mL; fractional inhibitory concentration index (FICI) (Candida albicans [27]): 1.25; MIC (Aspergillus flavus [29]): 4 µg/mL; MIC (Aspergillus flavus [30]): 2 µg/mL; inhibition (Candida tropicalis): 75.3%; MIC (Aspergillus fumigatus [31]): 16 µg/mL (≈ 32.8 µM); fractional inhibitory concentration index (FICI) (Aspergillus fumigatus [38]): 1.125; MIC (Candida albicans [33]): 2 µg/mL; MIC (Cryptococcus neoformans [34]): 4 µg/mL
